Experiments:
Sucrase = molecular target: T1, Sucrase (Rattus norvegicus, UniProt P23739); experiment: Sucrase activity inhibition (Dahlquist enzyme preparation, Bernfeld sugar determination); format: biochemical, Wistar rats; conditions: for Inhibition (%): final concentration of 5x10⁻⁴ M, substrate 60mM sucrose solution, 37 °C for 15 minutes, control (distilled water) = 100% activity; for sucrase activity inhibiting capacity: verbal summary of Table 1, 5x10⁻⁴ M
T1 construct: Sucrase was prepared from the mucous membrane of the small intestines of Wistar rats; from tissue; host or cells: mucous membrane of the small intestine of Wistar rats
T1 sequence (P23739 whole entry): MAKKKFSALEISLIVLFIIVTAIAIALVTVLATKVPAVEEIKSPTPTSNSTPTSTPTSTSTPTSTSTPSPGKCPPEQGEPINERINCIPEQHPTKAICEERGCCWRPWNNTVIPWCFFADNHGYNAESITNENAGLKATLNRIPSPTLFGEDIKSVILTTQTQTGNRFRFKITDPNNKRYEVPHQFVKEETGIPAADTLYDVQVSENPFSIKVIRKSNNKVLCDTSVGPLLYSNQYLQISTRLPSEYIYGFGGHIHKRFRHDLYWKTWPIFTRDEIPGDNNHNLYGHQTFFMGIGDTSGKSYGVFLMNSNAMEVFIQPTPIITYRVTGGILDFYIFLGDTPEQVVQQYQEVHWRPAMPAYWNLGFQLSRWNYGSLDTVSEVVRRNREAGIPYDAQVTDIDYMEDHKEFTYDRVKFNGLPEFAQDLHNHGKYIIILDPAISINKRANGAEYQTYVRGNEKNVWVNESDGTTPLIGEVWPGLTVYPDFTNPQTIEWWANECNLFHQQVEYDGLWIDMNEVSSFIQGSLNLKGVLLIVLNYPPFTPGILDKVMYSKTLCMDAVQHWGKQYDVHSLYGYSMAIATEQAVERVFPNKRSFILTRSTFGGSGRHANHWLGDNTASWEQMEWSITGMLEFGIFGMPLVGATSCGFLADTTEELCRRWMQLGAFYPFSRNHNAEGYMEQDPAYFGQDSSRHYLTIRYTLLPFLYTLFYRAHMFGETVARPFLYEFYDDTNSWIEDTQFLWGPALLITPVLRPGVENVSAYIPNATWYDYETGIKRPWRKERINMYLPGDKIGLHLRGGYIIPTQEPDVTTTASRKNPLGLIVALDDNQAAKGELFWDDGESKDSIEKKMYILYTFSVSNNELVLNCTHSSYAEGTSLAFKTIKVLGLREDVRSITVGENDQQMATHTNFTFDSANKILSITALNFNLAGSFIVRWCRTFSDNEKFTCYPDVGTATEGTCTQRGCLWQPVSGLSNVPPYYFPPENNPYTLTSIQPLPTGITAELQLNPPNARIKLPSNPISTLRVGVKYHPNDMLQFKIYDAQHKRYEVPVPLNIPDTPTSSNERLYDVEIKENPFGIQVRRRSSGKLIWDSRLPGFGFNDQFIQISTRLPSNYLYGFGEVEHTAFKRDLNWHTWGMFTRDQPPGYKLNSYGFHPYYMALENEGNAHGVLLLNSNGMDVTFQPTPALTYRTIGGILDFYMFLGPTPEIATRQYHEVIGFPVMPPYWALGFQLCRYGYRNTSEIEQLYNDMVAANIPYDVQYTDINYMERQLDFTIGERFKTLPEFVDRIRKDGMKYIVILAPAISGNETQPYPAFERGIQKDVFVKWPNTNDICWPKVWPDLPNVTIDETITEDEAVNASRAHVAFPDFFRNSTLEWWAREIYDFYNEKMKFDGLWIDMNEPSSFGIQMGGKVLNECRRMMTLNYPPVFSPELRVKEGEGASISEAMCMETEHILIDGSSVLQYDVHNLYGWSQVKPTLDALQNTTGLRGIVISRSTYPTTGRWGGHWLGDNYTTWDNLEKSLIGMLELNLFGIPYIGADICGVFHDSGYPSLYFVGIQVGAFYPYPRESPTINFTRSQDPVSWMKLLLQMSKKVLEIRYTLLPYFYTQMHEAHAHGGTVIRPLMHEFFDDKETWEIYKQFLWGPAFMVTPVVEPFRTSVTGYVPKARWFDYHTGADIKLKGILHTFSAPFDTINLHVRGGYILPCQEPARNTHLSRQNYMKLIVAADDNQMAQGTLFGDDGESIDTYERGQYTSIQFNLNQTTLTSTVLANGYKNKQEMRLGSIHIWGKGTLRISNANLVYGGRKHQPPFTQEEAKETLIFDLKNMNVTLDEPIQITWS
Experimental: The value thus measured was converted into the amount of decomposed sucrose, and the reaction speed was calculated using a standard method. The reaction speed of the control case (where distilled water was added instead of the sample solution) was also obtained in the same manner. Sucrase activity in the control case was calculated to be 100%. The percentage inhibition of the samples, each at a final concentration of 5x10⁻⁴ M, were obtained.

male ICR mice = experiment: Acute toxicity test (LD50 by Van der Waerden method); format: in vivo; conditions: intraabdominal administration
Experimental: An acute toxicity test of the sucrase activity inhibitor of the present invention was carried out using male ICR mice. LD₅₀ was calculated by the Van der Waerden method.

Row | Inhibition (%) (Sucrase) | sucrase activity inhibiting capacity (Sucrase) | SMILES | LD₅₀(reliable limit) (male ICR mice) [mg/kg]
1 | 95.9 | – | O=C(O[C@@H]1Cc2c(O)cc(O)cc2O[C@@H]1c1cc(O)c(=O)c2c(O)c(O)cc([C@H]3Oc4cc(O)cc(O)c4C[C@H]3OC(=O)c3cc(O)c(O)c(O)c3)c2c1)c1cc(O)c(O)c(O)c1 [Theaflavin Digallate] | –
2 | 59.5 | – | O=C(O[C@@H]1Cc2c(O)cc(O)cc2O[C@@H]1c1cc(O)c(O)c2c(=O)c(O)cc([C@H]3Oc4cc(O)cc(O)c4C[C@H]3O)cc12)c1cc(O)c(O)c(O)c1 [Theaflavin Monogallate B] | –
3 | 45.9 | – | O=C(O[C@@H]1Cc2c(O)cc(O)cc2O[C@@H]1c1cc(O)c(=O)c2c(O)c(O)cc([C@H]3Oc4cc(O)cc(O)c4C[C@H]3O)c2c1)c1cc(O)c(O)c(O)c1 [Theaflavin Monogallate A] | –
4 | 6.8 | only slight | O=c1c(O)cc([C@H]2Oc3cc(O)cc(O)c3C[C@H]2O)cc2c([C@H]3Oc4cc(O)cc(O)c4C[C@H]3O)cc(O)c(O)c12 [Free Theaflavin] | –

The next lines start with the compound.

Row | SMILES | Inhibition (%) (Sucrase) | sucrase activity inhibiting capacity (Sucrase) | LD₅₀(reliable limit) (male ICR mice) [mg/kg]
5 | Oc1cc(O)c2c(c1)O[C@H](c1cc(O)c(O)c(O)c1)[C@H](O)C2 [Epigallocatechin, (-) Epigallocatechin] | 17.3 | only slight | –
6 | Oc1cc(O)c2c(c1)O[C@H](c1ccc(O)c(O)c1)[C@H](O)C2 [Epicatechin, (-) Epicatechin] | 14.7 | only slight | –
7 | O=C(O[C@@H]1Cc2c(O)cc(O)cc2O[C@@H]1c1ccc(O)c(O)c1)c1cc(O)c(O)c(O)c1 [Epicatechin Gallate, (-) Epicatechin Gallate] | 62.5 | – | –
8 | O=C(O[C@@H]1Cc2c(O)cc(O)cc2O[C@@H]1c1cc(O)c(O)c(O)c1)c1cc(O)c(O)c(O)c1 [Epigallocatechin Gallate, (-) Epigallocatechin Gallate] | 78.8 | – | 150
9 | O=C(O)c1cc(O)c(O)c(O)c1 [Gallic Acid, reference compound] | 6.7 | – | –
10 | Oc1cc(O)c2c(c1)O[C@H](c1ccc(O)c(O)c1)[C@@H](O)C2 [(+)Catechin, reference compound] | 13.7 | – | –

Source: EP0522502A1, “Inhibitors of sucrase activity from tea” (MITSUI NORIN CO., LTD., priority 1991, dated 1993)
